Measurements as given in patent US9302991B2, “Arylamide derivatives as TTX-S blockers” (RaQualia Pharma Inc., priority 2010, dated 2016).

These compounds were tested against T1, human Nav1.7 channels (Homo sapiens, UniProt Q15858) (assay: FRET assay, human Nav1.7 (EFS on FDSS)). Conditions: CHO cells expressing human Nav1.7, read-out: IC50 against Nav1.7.
T1 construct: expressed in transfected cells; host or cells: CHO
Assay type: cell-based
Method: The inhibitory activities of compounds against voltage gated sodium channels are determined by methodology well known in the art.
The ability of the aryl substituted carboxamide derivatives of the formula (I) to inhibit the NaV1.3, Nav1.7 and Nav1.5 channels is measured by Fluorescence Resonance Energy Transfer (FRET) assay and electrophysiology assay described below.
This screen is used to determine the effects of compounds on human Nav1.3, human Nav1.7, and human Nav1.5 channels, utilising electrical field stimulation (EFS) system in 96-well plate format on FDSS (Hamamatsu Photonics) platform. The change of membrane potential is monitored with FRET dye pair, oxonol (DiSBAC2(3)) and coumarin (CC2-DMPE).
CHO cells expressing human Nav1.7 channels are grown in T225 flasks, in a 5% CO2 humidified incubator to about 80% confluence. Media composition consists of HAM/F12 with Glutamax 1.10% FCS, 100 units/mL Penicillin and 100 microgram/mL Hygromycin.
Protocol: • Seed each cell lines (1×10^5 cells/well) into poly-D-lysine coated 96-well plates prior to experimentation. • Incubate at 37° C. in 5% CO2 for 24 hours. • Wash each well with assay buffer (140 mM NaCl, 4.5 mM KCl, 10 mM D-Glucose, 2 mM CaCl2, 1 mM MgCl2, 10 mM HEPES, pH 7.4 adjusted with NaOH) twice. • Add 1st loading solution containing 10 microM CC2-DMPE and 0.06% Pluronic F-127 in assay buffer. • Incubate the plate at room temperature in dark for 1 hour. • Remove 1st loading solution and added 2nd loading solution containing 15 microM DiSBAC2(3), 0.555 mM VABSC-1 and 0.004% Pluronic F-127 in assay buffer. • Place the plate under the dark at room temperature for 25 minutes. • Add compound solutions into the assay plate. • Set the assay plate in FDSS and placed an EFS device on the plate. • Measure EFS-induced fluorescent response by FDSS.
The data are analyzed and reported as normalized ratios of intensities measured at […]. The process of calculating these ratios is performed as follows:
This analysis is performed using a computerized specific program designed for FDSS generated data. Fluorescence ratio values are plotted using XLfit to determine an IC50 value for each compound.

T1 sequence (Q15858 whole entry): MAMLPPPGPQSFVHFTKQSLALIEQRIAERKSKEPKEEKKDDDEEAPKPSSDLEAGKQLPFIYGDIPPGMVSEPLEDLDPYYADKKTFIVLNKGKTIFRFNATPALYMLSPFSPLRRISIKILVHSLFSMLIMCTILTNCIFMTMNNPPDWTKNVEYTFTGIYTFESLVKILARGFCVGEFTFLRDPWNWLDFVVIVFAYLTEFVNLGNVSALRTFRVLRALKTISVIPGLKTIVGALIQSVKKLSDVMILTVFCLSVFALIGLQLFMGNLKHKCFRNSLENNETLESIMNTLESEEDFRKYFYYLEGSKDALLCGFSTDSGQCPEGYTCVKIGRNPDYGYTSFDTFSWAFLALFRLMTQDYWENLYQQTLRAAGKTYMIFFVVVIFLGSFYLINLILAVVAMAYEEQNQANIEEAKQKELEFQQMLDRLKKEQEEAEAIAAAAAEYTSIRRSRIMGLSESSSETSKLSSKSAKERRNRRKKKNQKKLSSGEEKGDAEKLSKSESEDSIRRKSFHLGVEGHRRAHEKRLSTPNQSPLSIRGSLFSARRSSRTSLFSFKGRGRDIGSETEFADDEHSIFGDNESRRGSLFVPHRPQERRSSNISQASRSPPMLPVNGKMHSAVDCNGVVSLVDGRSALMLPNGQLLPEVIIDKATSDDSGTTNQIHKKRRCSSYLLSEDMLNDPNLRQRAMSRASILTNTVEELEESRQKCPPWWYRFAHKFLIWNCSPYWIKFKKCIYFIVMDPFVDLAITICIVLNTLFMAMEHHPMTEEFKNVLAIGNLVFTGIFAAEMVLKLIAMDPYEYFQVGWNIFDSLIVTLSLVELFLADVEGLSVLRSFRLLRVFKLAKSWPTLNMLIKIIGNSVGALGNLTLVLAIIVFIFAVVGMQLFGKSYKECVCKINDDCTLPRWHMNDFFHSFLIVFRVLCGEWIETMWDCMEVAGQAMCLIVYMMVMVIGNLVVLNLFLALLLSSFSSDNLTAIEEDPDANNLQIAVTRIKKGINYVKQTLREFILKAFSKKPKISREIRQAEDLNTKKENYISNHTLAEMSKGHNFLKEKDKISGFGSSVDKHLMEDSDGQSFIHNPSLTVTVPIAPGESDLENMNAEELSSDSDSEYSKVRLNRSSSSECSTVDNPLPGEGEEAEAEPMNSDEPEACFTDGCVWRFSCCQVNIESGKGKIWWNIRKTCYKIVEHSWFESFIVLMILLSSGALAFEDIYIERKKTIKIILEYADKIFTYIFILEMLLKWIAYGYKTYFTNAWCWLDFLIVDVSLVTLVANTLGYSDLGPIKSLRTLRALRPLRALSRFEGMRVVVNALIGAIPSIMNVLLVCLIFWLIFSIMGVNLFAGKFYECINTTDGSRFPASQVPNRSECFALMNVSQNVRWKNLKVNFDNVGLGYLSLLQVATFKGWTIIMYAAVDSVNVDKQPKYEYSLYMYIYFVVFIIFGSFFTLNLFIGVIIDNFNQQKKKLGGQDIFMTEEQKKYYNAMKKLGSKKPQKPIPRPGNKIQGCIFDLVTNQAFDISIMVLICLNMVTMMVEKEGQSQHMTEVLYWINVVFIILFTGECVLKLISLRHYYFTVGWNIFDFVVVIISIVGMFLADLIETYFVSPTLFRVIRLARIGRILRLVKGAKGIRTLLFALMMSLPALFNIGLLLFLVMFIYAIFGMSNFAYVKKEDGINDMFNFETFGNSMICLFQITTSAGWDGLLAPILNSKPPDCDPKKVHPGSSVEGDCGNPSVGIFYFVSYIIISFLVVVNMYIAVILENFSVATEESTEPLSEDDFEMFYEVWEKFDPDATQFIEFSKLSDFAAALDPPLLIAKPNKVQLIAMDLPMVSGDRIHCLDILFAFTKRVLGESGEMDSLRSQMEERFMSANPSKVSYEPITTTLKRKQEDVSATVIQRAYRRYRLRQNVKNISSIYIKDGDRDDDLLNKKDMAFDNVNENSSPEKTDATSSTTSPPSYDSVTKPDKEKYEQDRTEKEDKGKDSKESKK

SMILES | IC50
Cc1cc(C(=O)NC(C)c2cccc(OC(F)(F)F)c2)cc(NC(=O)C(C)(C)O)n1 (single isomer, unassigned) [Example 421, 2-(2-hydroxy-2-methylpropanamido)-6-methyl-N-(1-(3-(trifluoromethoxy)phenyl)ethyl)isonicotinamide] | < 1000 nM
C=CC(=O)Nc1cc(C(=O)NC(C)c2ccc(OCC(F)(F)F)nc2)cc(C)n1 (single isomer, unassigned) [Example 482, 2-acrylamido-6-methyl-N-(1-(6-(2,2,2-trifluoroethoxy)pyridin-3-yl)ethyl)isonicotinamide] | < 1000 nM
Cc1cc(C(=O)NC(C)c2cnc(OCC(F)(F)F)c(F)c2)cc(NC(=O)C(C)C)n1 (single isomer, unassigned) [Example 486, N-(1-(5-fluoro-6-(2,2,2-trifluoroethoxy)pyridin-3-yl)ethyl)-2-isobutyramido-6-methylisonicotinamide] | < 1000 nM
COc1cc(C(C)NC(=O)c2cc(C)nc(NC(=O)C(C)C)c2)cnc1OCC(F)(F)F (single isomer, unassigned) [Example 487, 2-isobutyramido-N-(1-(5-methoxy-6-(2,2,2-trifluoroethoxy)pyridin-3-yl)ethyl)-6-methylisonicotinamide] | < 1000 nM
Cc1cc(C(=O)NC(C)c2cnc(OCC(F)(F)F)c(Cl)c2)cc(NC(=O)C(C)C)n1 (single isomer, unassigned) [Example 521, N-(1-(5-chloro-6-(2,2,2-trifluoroethoxy)pyridin-3-yl)ethyl)-2-isobutyramido-6-methylisonicotinamide] | < 1000 nM
CC(C)C(=O)Nc1cc(C(=O)NC(C)c2cnc(OCC(F)(F)F)c(Cl)c2)ccn1 (single isomer, unassigned) [Example 522, N-(1-(5-chloro-6-(2,2,2-trifluoroethoxy)pyridin-3-yl)ethyl)-2-isobutyramidoisonicotinamide] | < 1000 nM
CC(=O)Nc1cc(C(=O)N[C@H](C)c2cccc(C(F)(F)F)c2)cc(C)n1 (single isomer, unassigned) [Example 529] | < 1000 nM
CC(C)C(=O)Nc1cc(C(=O)N[C@H](C)c2cccc(C(F)(F)F)c2)ccn1 (single isomer, unassigned) [Example 530] | < 1000 nM
Cc1cc(C(=O)N[C@H](C)c2cccc(C(F)(F)F)c2)cc(NC(=O)C(C)C)n1 (single isomer, unassigned) [Example 531] | < 1000 nM
CC(=O)Nc1cc(C(=O)NC(C)c2cnc(OCC(F)F)c(C)c2)ccn1 (single isomer, unassigned) [Example 551, 2-acetamido-N-(1-(6-(2,2-difluoroethoxy)-5-methylpyridin-3-yl)ethyl)isonicotinamide] | < 1000 nM
CCC(=O)Nc1cc(C(=O)NC(C)c2cnc(OCC(F)F)c(C)c2)ccn1 (single isomer, unassigned) [Example 552, N-(1-(6-(2,2-difluoroethoxy)-5-methylpyridin-3-yl)ethyl)-2-propionamidoisonicotinamide] | < 1000 nM
Cc1cc(C(C)NC(=O)c2ccnc(NC(=O)C3CC3)c2)cnc1OCC(F)F (single isomer, unassigned) [Example 553, 2-(cyclopropanecarboxamido)-N-(1-(6-(2,2-difluoroethoxy)-5-methylpyridin-3-yl)ethyl)isonicotinamide] | < 1000 nM
CC(=O)Nc1cc(C(=O)NC(C)c2cnc(OCC(F)F)c(C)c2)cc(C)n1 (single isomer, unassigned) [Example 556, 2-acetamido-N-(1-(6-(2,2-difluoroethoxy)-5-methylpyridin-3-yl)ethyl)-6-methylisonicotinamide] | < 1000 nM
Cc1cc(C(=O)NC(C)c2cnc(OCC(F)F)c(C)c2)nc(NC(=O)C2CC2)n1 (single isomer, unassigned) [Example 559, 2-(cyclopropanecarboxamido)-N-(1-(6-(2,2-difluoroethoxy)-5-methylpyridin-3-yl)ethyl)6-methylpyrimidine-4-carboxamide] | < 1000 nM
CC(C)C(=O)Nc1cc(C(=O)NC(C)c2cccc(OCC(F)(F)F)c2)ccn1 (single isomer, unassigned) [Example 561, 2-isobutyramido-N-(1-(3-(2,2,2-trifluoroethoxy)phenyl)ethyl)isonicotinamide] | < 1000 nM
CC(C)C(=O)Nc1cc(C(=O)NC(C)c2ccc(OCC(F)(F)F)cc2)ccn1 (single isomer, unassigned) [Example 562, 2-isobutyramido-N-(1-(4-(2,2,2-trifluoroethoxy)phenyl)ethyl)isonicotinamide] | < 1000 nM
CCCC(=O)Nc1cc(C(=O)NC(C)c2cnc(OCC(F)F)c(C)c2)ccn1 (single isomer, unassigned) [Example 633, 2-butyramido-N-(1-(6-(2,2-difluoroethoxy)-5-methylpyridin-3-yl)ethyl)isonicotinamide] | < 1000 nM
CCC(=O)Nc1cc(C(=O)NC(C)c2ccc(OCC(F)(F)C(F)F)nc2)ccn1 (single isomer, unassigned) [Example 653, 2-propionamido-N-(1-(6-(2,2,3,3-tetrafluoropropoxy)pyridin-3-yl)ethyl)isonicotinamide] | < 1000 nM
CC(C)C(=O)Nc1cc(C(=O)NC(C)c2ccc(OCC(F)(F)C(F)F)nc2)ccn1 (single isomer, unassigned) [Example 654, 2-isobutyramido-N-(1-(6-(2,2,3,3-tetrafluoropropoxy)pyridin-3-yl)ethyl)isonicotinamide] | < 1000 nM
Cc1cc(C(=O)NC(C)c2ccc(OCC(F)(F)C(F)F)nc2)cc(NC(=O)C(C)C)n1 (single isomer, unassigned) [Example 657, 2-isobutyramido-6-methyl-N-(1-(6-(2,2,3,3-tetrafluoropropoxy)pyridin-3-yl)ethyl)isonicotinamide] | < 1000 nM
CCC(=O)Nc1cc(C(=O)NC(C)c2ccc(OCC(F)(F)F)c(Cl)c2)ccn1 (single isomer, unassigned) [Example 673, N-(1-(3-chloro-4-(2,2,2-trifluoroethoxy)phenyl)ethyl)-2-propionamidoisonicotinamide] | < 1000 nM
CC(NC(=O)c1ccnc(NC(=O)C2CC2)c1)c1ccc(OCC(F)(F)F)c(Cl)c1 (single isomer, unassigned) [Example 675, N-(1-(3-chloro-4-(2,2,2-trifluoroethoxy)phenyl)ethyl)-2-(cyclopropanecarboxamido)isonicotinamide] | < 1000 nM
CC(=O)Nc1cc(C(=O)NC(C)c2ccc(OCC(F)(F)F)c(Cl)c2)cc(C)n1 (single isomer, unassigned) [Example 676, 2-acetamido-N-(1-(3-chloro-4-(2,2,2-trifluoroethoxy)phenyl)ethyl)-6-methylisonicotinamide] | < 1000 nM
Cc1cc(C(=O)NC(C)c2ccc(OCC(F)(F)F)c(Cl)c2)cc(NC(=O)C(C)C)n1 (single isomer, unassigned) [Example 678, N-(1-(3-chloro-4-(2,2,2-trifluoroethoxy)phenyl)ethyl)-2-isobutyramido-6-methylisonicotinamide] | < 1000 nM
Cc1cc(C(=O)NC(C)c2ccc(OCC(F)(F)F)c(Cl)c2)nc(NC(=O)C2CC2)n1 (single isomer, unassigned) [Example 679, N-(1-(3-chloro-4-(2,2,2-trifluoroethoxy)phenyl)ethyl)-2-(cyclopropanecarboxamido)-6-methylpyrimidine-4-carboxamide] | < 1000 nM
CC(NC(=O)c1ccnc(NC(=O)C2CC2)c1)c1ccc(OCC(F)(F)C(F)(F)F)nc1 (single isomer, unassigned) [Example 689, 2-(cyclopropanecarboxamido)-N-(1-(6-(2,2,3,3,3-pentafluoropropoxy)pyridin-3-yl)ethyl)isonicotinamide] | < 1000 nM
Cc1cc(C(=O)NC(C)c2ccc(OCC(F)(F)C(F)(F)F)nc2)cc(NC(=O)C(C)C)n1 (single isomer, unassigned) [Example 693, 2-isobutyramido-6-methyl-N-(1-(6-(2,2,3,3,3-pentafluoropropoxy)pyridin-3-yl)ethyl)isonicotinamide] | < 1000 nM
CCC(=O)Nc1cc(C(=O)NC(C)c2ccc(OCC(C)(F)F)nc2)ccn1 (single isomer, unassigned) [Example 781, N-(1-(6-(2,2-difluoropropoxy)pyridin-3-yl)ethyl)-2-propionamidoisonicotinamide] | < 1000 nM
CC(NC(=O)c1ccnc(NC(=O)C2CC2)c1)c1ccc(OCC(C)(F)F)nc1 (single isomer, unassigned) [Example 782, 2-(cyclopropanecarboxamido)-N-(1-(6-(2,2-difluoropropoxy)pyridin-3-yl)ethyl)isonicotinamide] | < 1000 nM
